Measurements reported in patent US20070244077A1, “COMPOSITION AND METHOD OF TREATING PERIPHERAL NEUROPATHY” (priority 2006, published 2007).

Assays:
Assay type in all cases: in vivo, rat
[1] = system: streptozotocin-induced diabetic rats; assay: Tactile allodynia, 50% withdrawal force to von Frey filaments in experimentally diabetic rats; details: for prevention of tactile allodynia (result in words): 3 months of treatment, diabetic rats, FIG. 2, aspirin 0.3 mg/kg, VIT E 4 g/kg diet, AMG 3 g/kg diet, PJ-34 20 mg/kg daily in drinking water; for animals in which development of tactile allodynia was prevented: SFZ 150 mg/kg BW daily in drinking water, vs non-treated diabetic group
Source text: Streptozotocin-induced diabetic rats (6-8 animals per group) were either left untreated or subjected to treatment with SFZ for up to 9 months. The presence of tactile allodynia was investigated at different time-points. […] Diabetic rats were either left untreated or subjected to treatment with either SFZ, the PARP inhibitor PJ-34, vitamin E (Vit E), or aminoguanidine (AMG) for 3 months. […] Experimentally diabetic rats display tactile allodynia (i.e., the perception of non-painful stimuli as painful), as evidenced by a significant decrease in the 50% withdrawal force (force at which there is a 50% probability of withdrawal) to von Frey filaments (FIGS. 1 and 2). The tactile allodynia was evident as early as 1 month after induction of diabetes and persisted throughout the experimental period (FIG. 1). Importantly, when compared to the non-treated diabetic group, administration of SFZ (150 mg/kg BW, daily, added to drinking water) prevented the development of tactile allodynia in either 50% or 80-100% of the animals after one or three months of treatment, respectively. We compared the effect of SFZ treatment on tactile allodynia in experimentally diabetic rats with those elicited by other salicylates (i.e. aspirin, 0.3 mg/kg), by the anti-oxidants Vitamin E (VIT E; 4 g/kg diet) and by aminoguanidine (AMG; 3 g/kg diet) and by the poly-ADP ribose-polymerase (PARP) inhibitor PJ-34 (20 mg/kg, daily, added to drinking water).

[2] = system: streptozotocin-induced diabetic rats; assay: Mechanical hyperalgesia, Randall and Selitto test in streptozotocin-induced diabetic rats; details: results not shown
Source text: Experimentally diabetic rats display nociceptive alterations in addition to tactile allodynia.

p65 NFkB = assay: Western blot of p65 NFkB expression in sciatic nerves of diabetic rats; details: 3-month SFZ-treated diabetic rats, immunoblot, FIG. 3
Source text: FIG. 3 is a Western blot analysis of p65 NFkB and CREB expression in sciatic nerves from individual normal (N), 3-month diabetic (D) and 3-month SFZ-treated diabetic (S) rats. Nerve proteins were subjected to SDS-PAGE and immunoblotting with antisera against p65 NFkB (left panel) or total (CREB) and phosphorylated CREB (p-CREB) (right panel). The ratio between the levels of pCREB and total CREB, in arbitrary units, is shown at the bottom of the respective lanes (numbers underneath the lanes). Blots were also probed using anti-ERK2 to control for protein loading. We carried out preliminary studies to determine the ability of commercial antibodies to detect the p65 subunit of NFkB, phospho-CREB (p-CREB) and CREB in sciatic nerve extracts (FIG. 3), as well as the possible changes in the expression of these transcription factors during experimental diabetes. The signal detected in the immunoblots is likely to reflect the presence of these transcription factors in Schwann cells, fibroblasts and/or endothelial cells. […] We are currently performing electrophoretic mobility shift assays (EMSA) to determine whether the increased immunoreactivity of p65 NFkB in diabetic nerves is paralleled by an increase in NFkB activity. At the same time, we observed a modest decrease in the levels of p-CREB relative to total CREB in diabetic nerves (FIG. 3, right panel). […]

NO = NO levels (nitrate+nitrite, fluorometric assay kit) in sciatic nerve extracts of diabetic rats; details: sciatic nerves; SFZ 200 mg/Kg BW daily for 9 months; mean ± SD of 3 animals
Protocol: (§1) NO levels were assayed in extracts from sciatic nerves (epineurium-free) by measuring the stable metabolites of NO (nitrate+nitrite) using a fluorometric assay kit. At the same time, the levels of PGE2 were evaluated by ELISA using a commercial kit (Cayman Chemical). In parallel samples, we also performed an immunoblot analysis to investigate possible changes in the expression of COX-2, one of the enzymes that convert arachidonic acid into PGE2.

PGE2 = PGE2 levels by ELISA in sciatic nerve extracts of diabetic rats; details: sciatic nerves; SFZ 200 mg/Kg BW daily for 9 months; mean ± SD of 3 animals
Protocol: as §1

COX-2 = assay: Immunoblot of COX-2 expression in sciatic nerve extracts of diabetic rats; details: normal vs diabetic vs SFZ-treated diabetic animals, FIG. 5
Protocol: as §1

adenosine derivatives = assay: Reverse-phase HPLC of adenosine derivatives (inosine, AMP) in sciatic nerve extracts of diabetic rats; details: total sciatic nerves; SFZ 200 mg/Kg BW daily for 9 months; mean ± SEM of 4 animals
Source text: Administration of either adenosine or of adenosine kinase or adenosine deaminase inhibitors appears to increase nociception thresholds. Two studies have reported that acute administration of either adenosine or adenosine kinase inhibitors can prevent some nerve abnormalities in experimental diabetes. […] However, no studies have investigated the eventual changes in levels of adenosine (or its metabolites) in diabetic nerves. […] Given these precedents, and to determine whether the beneficial effects of SFZ might be mediated through changes in adenosine levels, we measured the levels of this nucleoside in sciatic nerve extracts. Separation of adenosine derivatives was performed by reverse-phase HPLC in […]. This method allows proper separation of ATP, ADP, AMP, adenosine and inosine standards (FIG. 6). Under our experimental conditions we didn't detect an adenosine peak in the sciatic nerve extracts, but we typically observed small peaks corresponding to ATP and ADP and two relatively large peaks corresponding to AMP and inosine (a metabolite obtained by deamination of adenosine) (FIG. 7). The lack of an adenosine peak following fractionation of the sciatic nerve extracts is consistent with metabolism to AMP and/or with the presence of significant adenosine deaminase activity in these samples (and complete degradation to inosine and other breakdown products). […] The analysis of the elution profiles corresponding to sciatic nerve extracts prepared from normal, diabetic and SFZ-treated diabetic rats is summarized in Table 3. We observed that the SFZ-treated diabetic rats display an increase of inosine and a decrease in AMP levels. The design of these experiments could be improved to include the derivatization of samples (and increase the resolution of the ATP and ADP peaks) and/or dual analysis of samples to improve separation of overlapping components.

For `N=C(N)NN` [AMG, aminoguanidine], the “prevention of tactile allodynia (result in words)” value [1] was “partial prevention of tactile allodynia”.

For `CN(C)CC(=O)Nc1ccc2[nH]c(=O)c3ccccc3c2c1` [PJ-34], the “prevention of tactile allodynia (result in words)” value [1] was “partial prevention of tactile allodynia”.

With `O=C(O)c1cc(/N=N/c2ccc(S(=O)(=O)Nc3ccccn3)cc2)ccc1O` [SFZ, 5([p(2-pyridylsulfamoyl)phenyl]azo)salicylic acid] the “prevention of tactile allodynia (result in words)” value [1] was “completely prevents the development of tactile allodynia”, the “animals in which development of tactile allodynia was prevented” value ([1]; after one month of treatment) was 50% and the “animals in which development of tactile allodynia was prevented” value ([1]; after three months of treatment) was 80-100%. For the same compound, the “prevention of tactile allodynia over time (result in words)” value ([1]; treatment for up to 9 months, different time-points, FIG. 1) was “prevents the development of tactile allodynia”, the “effect on mechanical withdrawal thresholds (mechanical hyperalgesia)” value [2] was “modest amelioration of the mechanical thresholds that was not statistically significant” and the “diabetes-induced increase in expression of p65 NFkB in sciatic nerves” value (p65 NFkB) was “can be prevented by SFZ treatment”. The NO (NO) was 3.08 ± 0.25 nmoles/mg protein, the PGE2 (PGE2) was 366 ± 220 pmoles/mg protein and the “expression of COX-2 in sciatic nerve” value (COX-2) was “did not observe any significant changes”. For the same compound, the AMP (adenosine derivatives) was 2.04 ± 0.37 nmoles/mg protein, the Inosine (adenosine derivatives) was 5.25 ± 0.64 nmoles/mg protein and the Inosine/AMP (adenosine derivatives) was 2.71 ± 1.34.

In the case of `CC(=O)Oc1ccccc1C(=O)O` [aspirin], the “prevention of tactile allodynia (result in words)” value [1] is reported as “partial prevention of tactile allodynia”.

For Vitamin E [VIT E], the “prevention of tactile allodynia (result in words)” value [1] was “partial prevention of tactile allodynia”.
